According to paper PMC9141920, “Identification and Characterization of Dipeptidyl Peptidase-IV Inhibitory Peptides from Oat Proteins” (Foods, 2022):
Like-named read-outs stand apart in the source and are kept apart here. Where a SMILES comes first, the peptide text is derived from it.

Assays:
DPP-IV [1] = conditions: cited from earlier work; for Inhibition mode on DPP-IV: similar results reported
human DPP-IV = target: T1, human DPP-IV (Homo sapiens, UniProt P27487); assay: DPP-IV inhibitory activity assay with Gly-Pro-AMC as the substrate; type: biochemical; conditions: for IC50: peptides, Gly-Pro-AMC substrate
T1 construct: purchased Sigma-Aldrich
T1 sequence (P27487 whole entry): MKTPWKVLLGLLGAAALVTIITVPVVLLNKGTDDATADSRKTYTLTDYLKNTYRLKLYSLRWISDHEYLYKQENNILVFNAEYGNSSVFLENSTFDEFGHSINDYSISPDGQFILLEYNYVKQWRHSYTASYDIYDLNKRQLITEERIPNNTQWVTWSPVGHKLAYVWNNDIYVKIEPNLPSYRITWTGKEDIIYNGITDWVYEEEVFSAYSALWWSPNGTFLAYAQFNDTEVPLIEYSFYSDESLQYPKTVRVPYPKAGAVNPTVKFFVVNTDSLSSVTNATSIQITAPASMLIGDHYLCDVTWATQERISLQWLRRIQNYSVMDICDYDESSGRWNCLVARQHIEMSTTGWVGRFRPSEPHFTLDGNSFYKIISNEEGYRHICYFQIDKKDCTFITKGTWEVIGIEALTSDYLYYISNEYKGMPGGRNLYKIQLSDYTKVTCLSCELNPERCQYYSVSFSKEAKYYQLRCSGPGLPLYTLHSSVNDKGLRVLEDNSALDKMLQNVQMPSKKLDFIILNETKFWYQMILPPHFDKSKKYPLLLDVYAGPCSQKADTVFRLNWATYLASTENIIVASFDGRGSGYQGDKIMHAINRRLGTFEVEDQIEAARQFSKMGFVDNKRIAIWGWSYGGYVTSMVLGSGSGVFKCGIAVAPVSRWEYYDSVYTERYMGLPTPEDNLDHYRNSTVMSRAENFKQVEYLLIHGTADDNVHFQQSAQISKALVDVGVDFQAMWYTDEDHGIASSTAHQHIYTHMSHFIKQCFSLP
Description: The DPP-IV inhibitory activity assay of the sample was performed using Gly-Pro-AMC as the substrate, as previously described. Briefly, 50 µL Gly-Pro-AMC (0.2 mM) was added to a 40 µL sample (dissolved in 100 mM HEPES buffer) and incubated for 10 min at 37 °C. The reaction was initiated by adding 10 µL DPP-IV enzyme solution (10 U/L). After being incubated for 60 min at 37 °C, the reaction was terminated by adding 100 µL sodium acetate buffer (1 M, pH 4.0). The fluorescence intensity of the mixture was measured with an excitation wavelength of 350 nm and an emission wavelength of 440 nm. The control group used the HEPES buffer instead of the sample. The blank group used the HEPES buffer instead of the sample and DPP-IV enzyme solution. The DPP-IV inhibitory activity of the sample was calculated as follows:(2) DPP-IV inhibitory activity (%)=(Ac− Ab) − (As−Ab)/(Ac−Ab)×100% where As, Ac, and Ab are the intensity of the fluorescence of the sample, control, and blank groups, respectively. The half-maximal inhibitory concentration (IC50) of the sample was calculated according to the DPP-IV inhibition activity against the concentrations of the sample. In addition, the type of inhibition of the sample was obtained from the Lineweaver–Burk equation and double reciprocal plots.

DPP-IV [2] = test system: DPP-IV; set-up: method as in PMID 6427168; conditions: Gly-Pro-pNA as the substrate; read-out: DPP-IV inhibition IC50; cited from earlier work
[3] = Ruditapes Philippinarum protein-derived peptides
[4] = camel milk protein-derived peptides
[5] = Chlorella Vulgaris protein-derived peptides
[6] = wheat-derived peptides, read-out: DPP-IV inhibition IC50

Compound | inhibition at 25 µM (human DPP-IV) [%] | inhibition at 50 µM (human DPP-IV) [%] | inhibition at 100 µM (human DPP-IV) [%] | inhibition at 200 µM (human DPP-IV) [%] | inhibition at 400 µM (human DPP-IV) [%] | IC50 (human DPP-IV) [µM] | other results
LQAFEPLR | – | – | – | – | – | – | IC50 (DPP-IV [1]; peptide from tryptic hydrolysate of oat globulin, read-out: DPP-IV inhibitory activity IC50): 104 µM
CC[C@H](C)[C@H](N)C(=O)N1CCC[C@H]1C(=O)N[C@@H](CCC(N)=O)C(=O)N[C@@H](Cc1c[nH]cn1)C(=O)N[C@@H](Cc1ccc(O)cc1)C(=O)O [IPQHY] (H-IPQHY-OH) | 49.4 ± 1.19 | 66.9 ± 1.46 | 82.67 ± 0.74 | 91 ± 1.2 | 95.84 ± 0.52 | 25.7 ± 1.06 | –
CC(C)[C@H](N)C(=O)N[C@@H](C)C(=O)N[C@H](C(=O)N[C@H](C(=O)N1CCC[C@H]1C(=O)N[C@@H](Cc1ccccc1)C(=O)O)C(C)C)C(C)C [VAVVPF] (H-VAVVPF-OH) | 42.9 ± 2.31 | 61.5 ± 5.19 | 66 ± 4.07 | 78.9 ± 1.23 | 87.99 ± 0.39 | 33.9 ± 4.83 | –
FAGDDAPRA [Ruditapes Philippinarum protein-derived peptide] | – | – | – | – | – | – | Inhibition mode on DPP-IV (DPP-IV [1]; [3]): mixed-type inhibitors
FAGDDAPR [Ruditapes Philippinarum protein-derived peptide] | – | – | – | – | – | – | Inhibition mode on DPP-IV (DPP-IV [1]; [3]): mixed-type inhibitors
CC(C)C[C@H](NC(=O)[C@@H]1CCCN1C(=O)[C@@H](N)C(C)C)C(=O)NCC(=O)NCC(=O)N[C@@H](Cc1ccccc1)C(=O)O [VPLGGF] (H-VPLGGF-OH) | 34 ± 0.76 | 55.9 ± 1.86 | 74.4 ± 0.88 | 86.7 ± 1.1 | 92.67 ± 0.36 | 40.2 ± 0.95 | –
ILDKVGINY [camel milk protein-derived peptide] | – | – | – | – | – | – | Inhibition mode on DPP-IV (DPP-IV [1]; [4]): mixed-type inhibitors
FLMESH | – | – | – | – | – | – | Inhibition mode on DPP-IV (DPP-IV [1]; [3]): mixed-type inhibitors
SPVVPF | – | – | – | – | – | – | Inhibition mode on DPP-IV (DPP-IV [1]; [4]): mixed-type inhibitors
IPR | – | – | – | – | – | – | Inhibition mode on DPP-IV (DPP-IV [1]; [5]): mixed-type inhibitors
VAVPV | – | – | – | – | – | – | IC50 (DPP-IV [1]; [6]): ~500 µM
CC(C)C[C@H](N)C(=O)N1CCC[C@H]1C(=O)N[C@@H](CCC(N)=O)C(=O)N[C@@H](Cc1c[nH]cn1)C(=O)N[C@@H](Cc1ccc(O)cc1)C(=O)O [LPQHY] (H-LPQHY-OH) | 21.3 ± 4.86 | 37.4 ± 4.24 | 62.6 ± 1.21 | 80.4 ± 4.84 | 89.87 ± 0.41 | – | –
CSCC[C@H](N)C(=O)N[C@@H](C)C(=O)NCC(=O)N[C@@H](CCC(N)=O)C(=O)N[C@H](C(=O)N[C@@H](Cc1ccccc1)C(=O)O)C(C)C [MAGQVF] (H-MAGQVF-OH) | 10.4 ± 4.35 | 13 ± 2.11 | 26.7 ± 3.49 | 49.4 ± 1.9 | 67.5 ± 2.97 | 223 ± 6.16 | –
MPF | – | – | – | – | – | – | IC50 (DPP-IV [1]; [6]): ~500 µM
VPL | – | – | – | – | – | – | IC50 (DPP-IV [2]): 16.8 µM
CC(C)C[C@H](N)C(=O)N1CCC[C@H]1C(=O)N[C@@H](CCC(N)=O)C(=O)N[C@@H](Cc1ccc(O)cc1)C(=O)N[C@@H](CCC(N)=O)C(=O)N[C@@H](C)C(=O)O [LPQYQA] (H-LPQYQA-OH) | – | – | – | 5.59 ± 3.1 | 29.8 ± 2.5 | – | –
VPW | – | – | – | – | – | – | Inhibition mode on DPP-IV (DPP-IV [1]; [5]): mixed-type inhibitors
CC(C)[C@H](N)C(=O)N1CCC[C@H]1C(=O)N[C@@H](CCC(N)=O)C(=O)N[C@@H](Cc1c[nH]cn1)C(=O)N[C@@H](Cc1ccc(O)cc1)C(=O)O [VPQHY] (H-VPQHY-OH) | 40.5 ± 4.59 | 69.3 ± 4.66 | 78.8 ± 2.17 | 87.25 ± 0.25 | 94.3 ± 0.28 | 30.8 ± 1.93 | –
O=C(N[C@@H](CS)C(=O)N1CCC[C@H]1C(=O)O)[C@H](Cc1c[nH]cn1)NC(=O)[C@@H]1CCCN1C(=O)[C@@H]1CCCN1 [PPHCP] (H-PPHCP-OH; N-terminus and C-terminus assumed) | 4.42 ± 3.95 | 29.9 ± 1.84 | 58.9 ± 1.1 | 81.35 ± 0.48 | 89.29 ± 0.45 | – | –
CC(C)[C@H](NC(=O)[C@H](C)NC(=O)[C@H](C)N)C(=O)N1CCC[C@H]1C(=O)N[C@@H](Cc1ccccc1)C(=O)O [AAVPF] (H-AAVPF-OH) | 5.42 ± 3.61 | 16.7 ± 3.38 | 28.9 ± 2.62 | 39.9 ± 2.79 | 59.8 ± 2.84 | 282 ± 27.2 | –
CC(C)[C@H](N)C(=O)N[C@@H](C)C(=O)N[C@@H](CCC(=O)O)C(=O)N[C@H](C(=O)N1CCC[C@H]1C(=O)N[C@@H](Cc1ccccc1)C(=O)O)C(C)C [VAEVPF] (H-VAEVPF-OH) | 33 ± 12.3 | 43.4 ± 2.27 | 58.2 ± 3.86 | 74.2 ± 2.32 | 86.2 ± 0.96 | 65.3 ± 13.1 | –
